Measured values from publication PMC8307384, “Characterization of Two α-L-Arabinofuranosidases from Acetivibrio mesophilus and Their Synergistic Effect in Degradation of Arabinose-Containing Substrates” (Microorganisms, 2021).

Molecular target: T1, AmAraf51 (Acetivibrio mesophilus, UniProt A0A4Q0I2R2)
T1 construct: gene EFD62_11990; complete ORF, 509 residues, no signal peptide; N-terminal His6 tag (not reported cut); E. coli ArcticExpress (DE3), pET24c
Test: TLC of hydrolysis products
Assay type: biochemical
Conditions: 85 nM enzyme, 0.5 g/L substrate, pH 6.0, 60 °C

T1 sequence (A0A4Q0I2R2 entry or part of it): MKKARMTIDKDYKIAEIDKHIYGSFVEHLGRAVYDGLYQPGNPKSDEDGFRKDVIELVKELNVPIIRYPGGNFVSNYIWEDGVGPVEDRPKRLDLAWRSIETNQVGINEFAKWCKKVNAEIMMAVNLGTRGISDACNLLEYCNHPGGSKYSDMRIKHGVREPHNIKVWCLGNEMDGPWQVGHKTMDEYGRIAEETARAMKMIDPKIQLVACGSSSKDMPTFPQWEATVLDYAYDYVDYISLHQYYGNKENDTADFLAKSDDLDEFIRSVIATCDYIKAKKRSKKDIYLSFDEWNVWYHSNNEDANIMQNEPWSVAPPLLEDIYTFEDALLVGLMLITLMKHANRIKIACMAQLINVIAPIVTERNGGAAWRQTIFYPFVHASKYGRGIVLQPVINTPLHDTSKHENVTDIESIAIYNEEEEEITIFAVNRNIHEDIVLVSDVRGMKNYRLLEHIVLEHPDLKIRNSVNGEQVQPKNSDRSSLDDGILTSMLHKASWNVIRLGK

SMILES: OC[C@@H]1O[C@@H](OC[C@@H]2O[C@@H](OC[C@@H]3OC(O)[C@H](O)[C@H]3O)[C@H](O)[C@H]2O)[C@H](O)[C@H]1O (stereo partly shown) [A3, arabinotriose]
- TLC of hydrolysis products: incubation of AmAraf51 with three different AOS led to their almost complete hydrolysis to arabinose
